Measured values from patent US11214565B2, “Compound, compositions, and methods” (Denali Therapeutics Inc., priority 2015, dated 2022).

Molecular target: LRRK2 G2019S enzyme (Homo sapiens (Human), UniProt Q5S007, G2019S)
Test: LRRK2 G2019S TR-FRET biochemical kinase assay (LRRKtide substrate)
Conditions: 5 nM LRRK2, 134 μM ATP, 60 minute reaction, 23° C.
Experimental: LRRK2 G2019S enzyme, Substrate (LRRKtide), ATP, TR-FRET dilution buffer, pLRRKtide antibody, 384-well assay plate, and DMSO.
50 mM Tris pH 7.5, 10 mM MgCl2, 1 mM EGTA, 0.01% Brij-35, 2 mM DTT, 5 nM LRRK2, 134 μM ATP, 60 minute reaction time, 23° C. reaction temperature, and 10 μL total reaction volume.
1×TR-FRET dilution buffer, 10 mM EDTA, 2 nM antibody, 23° C. reaction temperature, and 10 μL total reaction volume.
Compound solutions were prepared by initially diluting to 1 mM with DMSO. 35 μL of reference compound solution, 35 μL of test compound solution, and 35 μL HPE were successively added to the source plate (384-well assay plate, Labcyte). The plates were centrifuged at 2500 rpm for 1 minute and sealed in foil. POD was used to perform a 3.162 fold serial dilution and 100 nL of reference compound solution, test compound solution, HPE and ZPE were transferred to assay plates. The assay plate was centrifuged at 2500 rpm for 1 minute, and sealed with foil.
To perform the enzyme reaction, 5 μL of LRRKtide substrate and kinase mixture in assay buffer was added to all wells of the assay plate. The plate was centrifuged to concentrate the mixture at the bottom of the wells. The assay plate was incubated at 23° C. for 20 minutes. Following incubation, 5 μL of 2×ATP in assay buffer was added to each well, and plates were centrifuged to concentrate the mixture at the bottom of the wells. The plate was incubated at 23° C. for 60 minutes.
To perform the detection of the reaction, EDTA completely mixed in TR-FRET dilution buffer was added to antibody reagent. 10 μL of detection reagent was added to all wells of each well of the assay-plate and the plate was centrifuged to concentrate the mixture at the bottom of the wells. The plate was then incubated at 23° C. for 60 minutes. Plates were read on Perkin Elmer Envision 2104 instrument in TR-FRET mode using a 340 nm excitation filter, 520 nm fluorescence emission filter, and 490 or 495 nm terbium emission filter.
B-2, C2, and D-4 respectively.

Chain of LRRK2 G2019S enzyme (Q5S007 whole entry G2019S): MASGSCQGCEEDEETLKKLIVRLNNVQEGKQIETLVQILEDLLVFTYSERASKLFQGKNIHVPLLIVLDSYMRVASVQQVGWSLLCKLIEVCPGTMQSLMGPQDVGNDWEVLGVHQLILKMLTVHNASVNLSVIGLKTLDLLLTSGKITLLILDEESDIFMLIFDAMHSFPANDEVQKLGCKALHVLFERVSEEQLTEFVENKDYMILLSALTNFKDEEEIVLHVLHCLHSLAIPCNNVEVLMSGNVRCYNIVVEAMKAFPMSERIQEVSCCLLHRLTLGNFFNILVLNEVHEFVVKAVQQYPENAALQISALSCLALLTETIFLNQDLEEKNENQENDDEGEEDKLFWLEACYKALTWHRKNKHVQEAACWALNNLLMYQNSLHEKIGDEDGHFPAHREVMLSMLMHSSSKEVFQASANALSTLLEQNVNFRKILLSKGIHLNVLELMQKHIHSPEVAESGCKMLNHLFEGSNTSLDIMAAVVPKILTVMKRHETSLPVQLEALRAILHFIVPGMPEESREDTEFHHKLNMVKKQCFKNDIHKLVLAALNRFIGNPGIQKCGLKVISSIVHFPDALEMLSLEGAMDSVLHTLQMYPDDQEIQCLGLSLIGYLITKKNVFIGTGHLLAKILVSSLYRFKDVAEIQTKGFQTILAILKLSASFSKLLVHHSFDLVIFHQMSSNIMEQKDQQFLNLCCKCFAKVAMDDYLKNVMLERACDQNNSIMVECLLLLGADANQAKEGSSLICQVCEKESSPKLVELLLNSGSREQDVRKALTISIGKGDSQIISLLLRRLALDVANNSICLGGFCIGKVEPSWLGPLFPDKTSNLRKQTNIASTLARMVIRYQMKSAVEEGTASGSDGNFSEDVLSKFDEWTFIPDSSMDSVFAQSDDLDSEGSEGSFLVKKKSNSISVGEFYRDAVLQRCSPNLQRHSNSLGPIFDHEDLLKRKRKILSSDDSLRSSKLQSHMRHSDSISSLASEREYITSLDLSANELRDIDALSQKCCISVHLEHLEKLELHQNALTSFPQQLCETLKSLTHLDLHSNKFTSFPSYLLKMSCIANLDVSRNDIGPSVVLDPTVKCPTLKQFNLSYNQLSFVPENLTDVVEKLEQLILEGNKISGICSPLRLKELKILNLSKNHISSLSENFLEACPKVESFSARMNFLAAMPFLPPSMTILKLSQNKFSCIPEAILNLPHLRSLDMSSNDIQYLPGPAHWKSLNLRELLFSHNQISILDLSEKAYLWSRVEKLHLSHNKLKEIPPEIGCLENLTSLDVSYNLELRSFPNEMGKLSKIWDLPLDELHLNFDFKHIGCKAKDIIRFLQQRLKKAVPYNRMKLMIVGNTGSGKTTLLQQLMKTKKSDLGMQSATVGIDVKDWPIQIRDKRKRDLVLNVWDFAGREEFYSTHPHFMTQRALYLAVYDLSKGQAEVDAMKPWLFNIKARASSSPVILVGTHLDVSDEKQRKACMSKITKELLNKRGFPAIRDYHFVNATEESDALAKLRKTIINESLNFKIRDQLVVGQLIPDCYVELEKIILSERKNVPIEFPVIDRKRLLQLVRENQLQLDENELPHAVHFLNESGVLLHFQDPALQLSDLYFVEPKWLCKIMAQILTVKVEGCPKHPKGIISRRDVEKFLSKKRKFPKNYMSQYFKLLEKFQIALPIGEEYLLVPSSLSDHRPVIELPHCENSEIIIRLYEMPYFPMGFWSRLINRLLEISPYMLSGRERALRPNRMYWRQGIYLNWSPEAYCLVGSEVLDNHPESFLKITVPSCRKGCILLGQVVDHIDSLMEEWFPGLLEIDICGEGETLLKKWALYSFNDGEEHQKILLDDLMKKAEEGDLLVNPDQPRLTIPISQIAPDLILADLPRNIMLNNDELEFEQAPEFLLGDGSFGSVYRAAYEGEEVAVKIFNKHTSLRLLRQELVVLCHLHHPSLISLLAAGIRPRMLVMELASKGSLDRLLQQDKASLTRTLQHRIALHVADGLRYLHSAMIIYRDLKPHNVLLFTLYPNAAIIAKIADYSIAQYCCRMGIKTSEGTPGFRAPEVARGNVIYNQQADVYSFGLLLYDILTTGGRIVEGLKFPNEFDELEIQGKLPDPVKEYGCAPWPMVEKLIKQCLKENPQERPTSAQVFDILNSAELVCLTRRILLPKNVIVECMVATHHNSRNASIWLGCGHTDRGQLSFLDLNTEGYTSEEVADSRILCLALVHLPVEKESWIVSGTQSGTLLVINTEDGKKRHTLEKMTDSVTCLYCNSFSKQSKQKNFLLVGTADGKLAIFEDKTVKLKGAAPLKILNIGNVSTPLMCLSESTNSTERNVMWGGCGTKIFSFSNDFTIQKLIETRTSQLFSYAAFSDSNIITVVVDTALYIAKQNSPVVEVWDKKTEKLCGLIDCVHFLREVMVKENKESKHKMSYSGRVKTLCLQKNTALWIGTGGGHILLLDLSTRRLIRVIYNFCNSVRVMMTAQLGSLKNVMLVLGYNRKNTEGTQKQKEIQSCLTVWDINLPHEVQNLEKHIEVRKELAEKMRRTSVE

| SMILES | IC50 (Table D-4) [nM] | other results |
| --- | --- | --- |
| COc1nc(Nc2cnn([C@H]3CCn4ccnc43)c2C)ncc1C(F)(F)F [Compounds D-142] | > 60 |  |
| COc1nc(Nc2cnn([C@H]3C[C@H](n4nccn4)C3)c2C)ncc1Br [Compound D-129] | < 30 |  |
| FCC(CF)n1cc(Nc2ncc(C(F)(F)F)c(C3CC3)n2)c(Cl)n1 [Compound A-46, N-[3-chloro-1-[2-fluoro-1-(fluoromethyl)ethyl]pyrazol-4-yl]-4-cyclopropyl-5-(trifluoromethyl)pyrimidin-2-amine] |  | IC50 (Table A-2): < 30 nM |
| CNc1nc(Nc2cn([C@H]3C[C@H](OC(F)F)C3)nc2C)ncc1C(F)(F)F [Compound D-26, trans-N2-[1-[3-(difluoromethoxy)cyclobutyl]-3-methyl-pyrazol-4-yl]-N4-methyl-5-(trifluoromethyl)pyrimidine-2,4-diamine] | < 30 |  |
| Cc1nn(C2CC2)cc1Nc1cc(C2CC2)c2c(C#N)c[nH]c2n1 [Compound C-54] |  | IC50 (Table C-2): < 50 nM |
| CCNc1nc(Nc2cnn([C@H]3C[C@H](n4ccnn4)C3)c2C)ncc1C(F)(F)F [Compound D-73] | < 30 |  |
| CNc1nc(Nc2cnn([C@H]3C[C@H](n4cc(F)cn4)C3)c2C)ncc1C(F)(F)F [Compound D-64] | < 30 |  |
| Cc1nn(C(C)(C)C#N)cc1Nc1ncc(C(F)(F)F)c([C@@H]2C[C@H]2F)n1 (single isomer, unassigned) [Compound A-12, 2-(4-((4-(2-fluorocyclopropyl)-5-(trifluoromethyl)pyrimidin-2-yl)amino)-3-methyl-1H-pyrazol-1-yl)-2-methylpropanenitrile] |  | IC50 (Table A-2): > 60 nM |
| COc1nc(Nc2cn(C)nc2C)nc2[nH]cc(Cl)c12 [Compound B-9, 5-chloro-N-(1,3-dimethylpyrazol-4-yl)-4-methoxy-7H-pyrrolo[2,3-d]pyrimidin-2-amine] |  | IC50 (Table B-2): 2 to 20 nM |
| Cc1nn(C)cc1Nc1nc(C2CC2)c2cc[nH]c2n1 [Compound C-24] |  | IC50 (Table C-2): < 50 nM |
| Cc1nn(C(C)(C)C#N)cc1Nc1nc(C2CC2)c2c(F)c[nH]c2n1 [Compound C-14, 2-[4-[(4-cyclopropyl-5-fluoro-7H-pyrrolo[2,3-d]pyrimidin-2-yl)amino]-3-methyl-pyrazol-1-yl]-2-methyl-propanenitrile] |  | IC50 (Table C-2): < 50 nM |
| CCNc1nc(Nc2cnn([C@H]3C[C@H](n4cnc(C(F)(F)F)n4)C3)c2C)ncc1C(F)(F)F [Compound D-135] | < 30 |  |
| CCNc1nc(Nc2cnn(C3CCn4ccnc43)c2C)ncc1C(F)(F)F (racemic) [Compound D-22, N2-(1-(6,7-dihydro-5H-pyrrolo[1,2-a]imidazol-7-yl)-5-methyl-1H-pyrazol-4-yl)-N4-ethyl-5-(trifluoromethyl)pyrimidine-2,4-diamine] | < 30 |  |
| Cn1ncnc1C(C)(C)n1cc(Nc2ncc(C(F)(F)F)c(C3CC3)n2)c(Cl)n1 [Compound A-37, N-(3-chloro-1-(2-(1-methyl-1H-1,2,4-triazol-5-yl)propan-2-yl)-1H-pyrazol-4-yl)-4-cyclopropyl-5-(trifluoromethyl)pyrimidin-2-amine] |  | IC50 (Table A-2): > 60 nM |
| CCNc1nc(Nc2cnn(C3CCn4cncc43)c2C)ncc1C(F)(F)F [Compound D-110] | < 30 |  |
| CCNc1nc(Nc2cnn(C(C)COC(F)F)c2C)ncc1C(F)(F)F [Compound D-82] | < 30 |  |
| Cc1nn(C(C)(C)C#N)cc1Nc1nc(C2CC2)c2c(C3CC3)c[nH]c2n1 [Compound C-41] |  | IC50 (Table C-2): < 50 nM |
| Cc1c(Nc2ncc(C(F)(F)F)c(NC3CC3)n2)cnn1[C@H]1C[C@H](n2cccn2)C1 [Compound D-106] | < 30 |  |
| CCNc1nc(Nc2cnn([C@H]3C[C@H](N4CC[C@H](F)C4)C3)c2C)ncc1C(F)(F)F [Compound D-195] | < 30 |  |

| SMILES | IC50 (Table D-4) [nM] | other results |
| --- | --- | --- |
| Clc1c(Nc2nc(C3CC3)c3nc[nH]c3n2)cnn1CC1CC1 [Compound C-38] |  | IC50 (Table C-2): < 50 nM |
| CCNc1nc(Nc2cnn([C@H]3C[C@@H](N4CCCC4=O)C3)c2C)ncc1C(F)(F)F [Compound D-139] | < 30 |  |
| COc1nc(Nc2cn(C(C)(C)C#N)nc2C)nc2[nH]cc(Cl)c12 [Compound B-5, 2-[4-[(5-chloro-4-methoxy-7H-pyrrolo[2,3-d]pyrimidin-2-yl)amino]-3-methyl-pyrazol-1-yl]-2-methyl-propanenitrile] |  | IC50 (Table B-2): 1 to 2 nM |
| CCNc1nc(Nc2cnn(C3CCc4cn[nH]c43)c2C)ncc1C(F)(F)F [Compound D-126] | > 60 |  |
| Cc1nn(C(C)(C)C#N)cc1Nc1ncc(C(F)(F)F)c(C2CCCC2)n1 [Compound A-10, 2-[4-[[4-cyclopentyl-5-(trifluoromethyl)pyrimidin-2-yl]amino]-3-methyl-pyrazol-1-yl]-2-methyl-propanenitrile] |  | IC50 (Table A-2): > 60 nM |
| CCSc1nc(Nc2cn(C(C)(C)C#N)nc2C)ncc1Cl [Compound D-44, 2-[4-[(5-chloro-4-ethylsulfanyl-pyrimidin-2-yl)amino]-3-methyl-pyrazol-1-yl]-2-methyl-propanenitrile] | < 30 |  |
| CNc1nc(Nc2cnn([C@@](C)(C#N)C(F)F)c2C)ncc1C(F)(F)F [Compounds D-200] | < 30 |  |
| Cc1nn(C(C)(C)C#N)cc1Nc1ncc(Cl)c(C2CC2)n1 [Compound A-2, 2-[4-[(5-chloro-4-cyclopropyl-pyrimidin-2-yl)amino]-3-methyl-pyrazol-1-yl]-2-methyl-propanenitrile] |  | IC50 (Table A-2): < 30 nM |
| CCNc1nc(Nc2cnn([C@H]3C[C@H](N4CC[C@@H](F)C4)C3)c2C)ncc1C(F)(F)F [Compound D-197] | < 30 |  |
| CNc1nc(Nc2cnn(C3CCc4c3cnn4C)c2C)ncc1C(F)(F)F [Compound D-56] | < 30 |  |
| CCNc1nc(Nc2cnn(C3CCCn4ccnc43)c2C)ncc1C(F)(F)F [Compound D-78] | > 60 |  |
| Cc1c(Nc2ncc(C(F)(F)F)c(C3CC3)n2)cnn1[C@H]1C[C@H](c2ncnn2C)C1 [Compound A-80, 4-cyclopropyl-N-(5-methyl-1-((1r,3r)-3-(1-methyl-1H-1,2,4-triazol-5-yl)cyclobutyl)-1H-pyrazol-4-yl)-5-(trifluoromethyl)pyrimidin-2-amine] |  | IC50 (Table A-2): < 30 nM |
| Cc1nn(C(C)(C)c2cn[nH]n2)cc1Nc1ncc(C(F)(F)F)c(C2CC2)n1 [Compound A-71, N-(1-(2-(2H-1,2,3-triazol-4-yl)propan-2-yl)-3-methyl-1H-pyrazol-4-yl)-4-cyclopropyl-5-(trifluoromethyl)pyrimidin-2-amine] |  | IC50 (Table A-2): < 30 nM |
| Cc1nn(C(C)(C)C#N)cc1Nc1ncc(C#N)c(C2CC2)n1 [Compound A-3, 2-[[1-(1-cyano-1-methyl-ethyl)-3-methyl-pyrazol-4-yl]amino]-4-cyclopropyl-pyrimidine-5-carbonitrile] |  | IC50 (Table A-2): > 60 nM |
| CNc1nc(Nc2cn(C3CCc4c3cnn4C)nc2C)ncc1C(F)(F)F [Compound D-37, N^4-methyl-N^2-(3-methyl-1-(1-methyl-1,4,5,6-tetrahydrocyclopenta[c]pyrazol-4-yl)-1H-pyrazol-4-yl)-5-(trifluoromethyl)pyrimidine-2,4-diamine] | 30 to 60 |  |
| CNc1nc(Nc2cnn([C@](C)(C#N)CF)c2C)ncc1C(F)(F)F [Compounds D-190] | < 30 |  |
| CNc1nc(Nc2cnn([C@H]3CCC(n4ccnn4)C3)c2C)ncc1C(F)(F)F (stereo partly drawn) [Compounds D-175] | < 30 |  |
| CNc1nc(Nc2cn(C3CCc4c(C)noc43)nc2C)ncc1C(F)(F)F [Compound D-35, N^4-methyl-N^2-(3-methyl-1-(3-methyl-5,6-dihydro-4H-cyclopenta[d]isoxazol-6-yl)-1H-pyrazol-4-yl)-5-(trifluoromethyl)pyrimidine-2,4-diamine] | < 30 |  |
